Assays:
GRIA1^Asn = target: T1, GRIA1^Asn (Bos taurus, UniProt G0T3G6, S306N); test: Whole-cell current responses in Xenopus oocytes injected with GRIA1^Asn mRNA; type: cell-based, bovine; conditions: Xenopus oocytes expressing GRIA1^Asn alone, glutamate 1-300 µM, n = 9; read-out: EC50 of current response
T1 construct: expressed in transfected cells; host or cells: Xenopus oocytes (mRNA injection)
Protocol: (§1) Bovine GRIA1 mRNAs were synthesized using mMESSAGE mMACHINE® SP6 Kit (Applied Biosystems) and injected into Xenopus oocytes as described previously. Whole-cell current responses to 1, 3, 10, 30, 100, and 300 µM glutamate were recorded as described previously.

GRIA1^Ser = target: T2, GRIA1^Ser (Bos taurus, UniProt G0T3G6); test: Whole-cell current responses in Xenopus oocytes injected with GRIA1^Ser mRNA; type: cell-based, bovine; conditions: Xenopus oocytes expressing GRIA1^Ser alone, glutamate 1-300 µM, n = 10; read-out: EC50 of current response
T2 construct: expressed in transfected cells; host or cells: Xenopus oocytes (mRNA injection)
Protocol: as §1

GRIA1^Ser with GRIA2 = test: Whole-cell current responses in Xenopus oocytes coexpressing GRIA1^Ser with GRIA2; type: cell-based, bovine; conditions: Xenopus oocytes expressing GRIA1^Ser coexpressed with GRIA2, n = 8; read-out: EC50 of current response
Protocol: as §1

[1] = tested on: GT1-7 cells expressing GRIA1^Ser; test: GnRH release from GT1-7 cells expressing GRIA1 (enzyme immunoassay); type: cell-based, murine; conditions: 100 µM glutamate for 30 min, GT1-7 cells expressing GRIA1^Ser compared with GRIA1^Asn
Protocol: We amplified bovine GRIA1 that had been cloned into pTracer-nucGFP with primers GRIA1InFusionF and R and then switched into pCAGGS (N-R) using the In-Fusion™ Advantage PCR Cloning Kit (Takara Bio Inc., Shiga, Japan) to produce HA-tagged protein under the control of a ubiquitous strong promoter that was based on the β-actin promoter.
GT1-7 cells were cultured in six-well dishes coated with poly-L-ornithine (BD Biocoat [PLO/LM] 354658, Becton Dickinson and Company, Franklin Lakes, NJ) with conditioned-Dulbecco's modified Eagles medium (C-MEM), which was comprised of a 1∶1 mixture of conditioned medium from mouse embryonic astrocytes in primary culture and Dulbecco's modified Eagles medium with high glucose (Invitrogen) supplemented with 10% fetal calf serum, penicillin (100 U/ml), and streptomycin (100 µg/ml). When cells reached 90 % confluence, C-MEM was replaced with Opti-MEM (Invitrogen) and transfected with Lipofectamine 2000 (Invitrogen) for 24 h.
The next day, confluent GT1-7 cells were treated as described previously. The concentration of GnRH in the media was assayed using an LH-releasing hormone enzyme immunoassay kit (S-1217, Peninsula Laboratories, LLC, San Carlos, CA) according to the manufacturer's instructions.

GRIA1^Asn with GRIA2 = test: Whole-cell current responses in Xenopus oocytes coexpressing GRIA1^Asn with GRIA2; type: cell-based, bovine; conditions: Xenopus oocytes expressing GRIA1^Asn coexpressed with GRIA2, n = 8; read-out: EC50 of current response
Protocol: as §1

[2] = target: GRIA1 (brain membrane fraction of S/N cows); test: [3H]AMPA ligand binding assay, membrane fractions from brain of S/N cows; parameters: species or system bovine; conditions: saturation binding of [3H]AMPA 1-200 nM, n = 3
Protocol: (§2) Membrane fractions were extracted from bovine brain as described previously, and 25 µg of protein were resolved by SDS-PAGE and transferred to polyvinylidene difluoride membranes. The blots were incubated with rabbit polyclonal antibody to GRIA1 (1∶1000, AB1504, Millipore, Tokyo, Japan) or actin (1∶200, A2066, Sigma-Aldrich, St. Louis, MO).
(§3) Protein (500 µg/ml) was used for a ligand binding assay with [^3H] AMPA (392.2 GBq/mmol, 1–200 nM) as described previously. Non-specific binding obtained by incubating 1 mM L- glutamate in the binding assay was subtracted from total binding to yield specific [^3H] AMPA- binding.

LH release = tested on: LH release; parameters: method as in PMID 9331548; conditions: infusion into the third cerebral ventricle, ovariectomized estrogen-primed adult female rats; cited from earlier work
[3] = target: GRIA1^Asn (brain membrane fraction of N/N cows); test: [3H]AMPA ligand binding assay, membrane fractions from brain of N/N cows; parameters: species or system bovine; conditions: saturation binding of [3H]AMPA 1-200 nM, n = 3
Protocol: as §2, §3

[4] = target: GRIA1^Ser (brain membrane fraction of S/S cows); test: [3H]AMPA ligand binding assay, membrane fractions from brain of S/S cows; parameters: species or system bovine; conditions: saturation binding of [3H]AMPA 1-200 nM, n = 3
Protocol: as §2, §3

T2 sequence (G0T3G6 19-906): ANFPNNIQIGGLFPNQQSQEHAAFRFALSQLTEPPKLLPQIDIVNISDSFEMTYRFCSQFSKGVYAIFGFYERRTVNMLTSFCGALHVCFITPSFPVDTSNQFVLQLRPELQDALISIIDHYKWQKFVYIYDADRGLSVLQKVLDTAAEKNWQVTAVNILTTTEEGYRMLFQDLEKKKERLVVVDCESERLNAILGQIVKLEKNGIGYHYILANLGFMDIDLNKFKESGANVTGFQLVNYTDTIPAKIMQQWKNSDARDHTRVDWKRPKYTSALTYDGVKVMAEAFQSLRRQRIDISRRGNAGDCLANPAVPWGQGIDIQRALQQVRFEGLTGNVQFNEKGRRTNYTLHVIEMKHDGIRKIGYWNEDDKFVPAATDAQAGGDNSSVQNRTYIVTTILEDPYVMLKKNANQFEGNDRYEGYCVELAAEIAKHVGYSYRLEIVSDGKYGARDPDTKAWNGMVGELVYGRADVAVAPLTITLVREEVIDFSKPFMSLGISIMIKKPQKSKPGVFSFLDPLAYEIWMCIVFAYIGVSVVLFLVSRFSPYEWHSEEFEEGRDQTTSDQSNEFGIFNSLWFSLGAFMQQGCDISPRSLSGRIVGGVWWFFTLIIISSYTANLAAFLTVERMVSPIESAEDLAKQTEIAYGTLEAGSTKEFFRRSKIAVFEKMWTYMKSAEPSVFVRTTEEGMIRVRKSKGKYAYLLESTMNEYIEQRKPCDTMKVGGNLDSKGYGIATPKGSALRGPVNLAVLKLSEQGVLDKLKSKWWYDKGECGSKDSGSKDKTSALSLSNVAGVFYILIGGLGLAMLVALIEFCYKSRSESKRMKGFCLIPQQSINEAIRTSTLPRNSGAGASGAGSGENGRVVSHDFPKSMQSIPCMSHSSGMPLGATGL
T1 sequence (G0T3G6 19-906 S306N): as the sequence (G0T3G6 19-906) above, with S288N counted along it

Row | Structure (SMILES) | EC50 (GRIA1^Asn) [µM] | EC50 (GRIA1^Ser) [µM] | EC50 (GRIA1^Ser with GRIA2) [µM] | GnRH release [1] | EC50 (GRIA1^Asn with GRIA2) [µM] | Kd [2] [µM] | LH release (LH release) | Kd [3] [µM] | Kd [4] [µM]
1 | N[C@@H](CCC(=O)O)C(=O)O [glutamate] | 10.7 | 4.5 | 4.9 | induced the release of more GnRH than that from cells expressing GRIA1^Asn | 10.4 |  |  |  | 
2 | Cc1o[nH]c(=O)c1CC(N)C(=O)O (stereo not drawn) [AMPA] |  |  |  |  |  | 0.0436 | induces LH release | 0.0596 | 0.0277
